US9592211B2, “Compositions for improvement of brain function” (GRESPO AB, priority 2012, dated 2017)
Entries after “also recorded” stand apart in the source; their conditions may differ.

How the values were obtained:
[1] = tested on: nestin-positive neurons in hippocampal CA1 area; assay: Induction of hippocampal neurogenesis (nestin immunohistochemistry), Example 1; assay type: in vivo, Mongolian gerbils; settings: old gerbils, 6 month feeding in chow, compared to age matched controls (FIG. 1)
Experimental: After the course of treatment as specified under Materials and Methods, the animals were sacrificed and the brains were analysed histologically to quantitate hippocampal neurogenesis.
Nestin is a marker for immature neurons. Nestin positive cells were found in the hippocampal layer of the pyramidal neurons. […] In some cells long processes that seem to be dendrites extended into deeper layers of the hippocampus, and these processes were nestin positive as well. In all of the CA fields of the hippocampus (CA1-CA3) these cells were structurally similar to pyramidal cells. The structural similarities between nestin positive cells and neurons allow regarding this type of cells as newly generated neurons.
In Example 1. the animals were fed Labofeed B standard chow (from Labofeed company; Andrzej Morawski Feed Production Plant, Kcynia near. Bydgoszcz, Poland) supplemented with test compounds as specified in table 1.
The lipase, protease and amylase were obtained as capsules containing 30,000 USP units/capsule of lipase, 20,000 USP units/capsule of protease, and 3,000 USP units/capsule of amylase) prepared as shown in Table 2. […]
Samplings for immunohistochemistry (one hemisphere of each animal) were postfixed overnight in the same fixative at +4° C. […] Then slices were washed out, placed on histological slides and mounted with Fluorescence Mounting Media (Dako, Denmark). […]

[2] = tested on: Mongolian gerbils; assay: T-maze spontaneous alternation, cognitive function/memory, Example 2; assay type: in vivo; settings: old gerbils, feeding in chow, tested once (FIG. 2)
From the text: During the course of the treatment, the animals were subjected to T-maze test measuring cognitive function and/or memory as specified under Materials and Methods.
For long-lasting feeding (during 6 month) 75 old male Mongolian gerbils, randomly selected, were used. Those selected were approximately 1.5 years of age at start of the experiment with the mean body weight of 88.0±6 g and 2 years of age at experiment finish.
Subjects were first placed in the start arm of the T Maze. Upon leaving the start arm, subjects chose between entering either the left or the right goal arm. […] The percentage of alternation (number of turns in each goal arm) and total trial duration were recorded.

[3] = tested on: synaptic terminals in hippocampal CA1 zone; assay: Synaptic morphology alterations (electron microscopy), Example 4; assay type: in vivo, Mongolian gerbils
From the text: In the middle portion of the CA1 stratum radiatum analyzed in the study, the great majority of synaptic inputs are excitatory and they preferentially terminate on the […], Taking into consideration these aspects, we could focus our analyses on the pool of excitatory CA1 spine synapses.
After perfusion the brains were isolated and separated on two hemispheres.
The hippocampus from another hemisphere of each animal was isolated and cut in 400-μm-thick transverse slices by a chopper (McIlwain tissue chopper, Great Britain). […] Tissue slices were then dehydrated in an ascending series of ethanol followed by dry acetone and embedded in EPON resin according to official protocol. The sections were produced by ultramicrotome LKB-8800. Toluidine blue-stained semi-thin (1 μm) sections of hippocampus were used to localize hippocampal CA1 area. For electron microscopy, ultra-thin sections (70 nm) from the middle portion of CA1 stratum pyramidale and stratum radiatum were stained with uranyl acetate and lead citrate.
The images were taken with JEM-100CX (Jeol, Japan) transmission electron microscope at magnification of ×10 000.
Perforated synapse was defined as a synapse with discontinuous PSD. The synapses with more than one spine contacting the same presynaptic terminal were classified as multiple spine boutons (MSB).
For the analysis of SV's distribution, x- and y-coordinates of SV profile centers and points tracing the active zone of a synapse were marked with UTHSCSA ImageTool software (version 3, University of Texas, San Antonio, Tex.; ftp://maxrad6.uthscsa.edu) on digitized micrographs, using the point tool.
AZD and NND quantities were pooled together per group. […]
Estimations of synapse density were carried out on single photos by counting all asymmetric spine synapses (determined by the presence of a spine head with prominent PSD and docked synaptic vesicles (SV) in the active zone of a presynaptic terminal) on the micrograph surface limited by the counting frame (36 mkm^2 test area) followed by calculation of the number of synapses per surface unit area.

Compound: O=C(O)CCC(=O)C(=O)O [AKG, alpha-ketoglutaric acid]
- hippocampal neurogenesis (number of nestin-positive neurons per 1 mm of pyramidal layer length in hippocampal CA1 area) [1]: increased hippocampal neurogenesis; also recorded: increase neurogenesis
- cognition (percentage of spontaneous alterations in T-maze test) [2]: improved cognition
- number of SVs (synaptic vesicles) per presynaptic terminal ([3]; hippocampal CA1, compared to control old animals (FIG. 6A)): increased
- number of synaptic terminals (synaptic contacts) per unit area (100 μm^2), increased to ([3]; hippocampal CA1, old gerbils after long time treatment, old control three times lower than young (FIG. 4)): 55%
- distance from a synaptic vesicle to the active zone (AZD) ([3]; hippocampal synapses, old gerbils (FIG. 7)): increase of a distance from a vesicle to the active zone
